Source: ChEMBL document CHEMBL4483862, “Open-source discovery of chemical leads for next-generation chemoprotective antimalarials” (2018)

System: Plasmodium berghei
Test: Luciferase/luciferin-expressing antifolate-resistant parasites were used to infect a culture of HepG2 cells that were pre-incubated with compounds. Infected hepatocytes emit light due to the luciferase reaction. Assay results are presented as the percent inhibition of light emission compared to control. […]
Format: functional
Details: sporozoite; for IC90: read-out: LUCIFERASE INFECTION ASSAY - IC90
[1] = read-out: LUCIFERASE INFECTION ASSAY - IC50

Row | Compound | IC90 [µM] | further results
1 | O=C(/C=C/c1ccc2ccccc2n1)N1CCCC(c2nc3ccccc3[nH]2)C1 (configuration not stated) | 9.5 | IC50 (HEPG2TOX_HILL_SLOPE 11.0, 10.5, HEPG2TOX_R_SQUARED 0.675, 0.360, PBLUC_HILL_SLOPE 2.71, 0.363, PBLUC_R_SQUARED 0.567, 0.526, read-out: LUCIFERASE INFECTION ASSAY - IC50): 2.81 µM
2 | NS(=O)(=O)c1cccc(NC(=O)CCc2ccccc2Cl)c1 | > 10 | IC50 [1]: > 10 µM
3 | O=C(NCCSCc1ccc(Cl)cc1Cl)c1ccc(Cl)cc1 | > 8.81 | IC50 (PBLUC_HILL_SLOPE 13.4, PBLUC_R_SQUARED 0.244, read-out: LUCIFERASE INFECTION ASSAY - IC50): 7.79 µM
4 | O=C(Nc1cccc(Cl)c1)C1=COC2=NC(=O)N(Cc3cccc(Cl)c3)CCN12 | > 10 | IC50 (HEPG2TOX_HILL_SLOPE 3.25, HEPG2TOX_R_SQUARED 0.784, PBLUC_HILL_SLOPE 3.78, PBLUC_R_SQUARED 0.178, read-out: LUCIFERASE INFECTION ASSAY - IC50): 6.88 µM
5 | Cc1ccc(S(=O)(=O)/N=C2\C=C(NS(=O)(=O)c3ccc(C)cc3)C(=O)c3ccccc32)cc1 | > 10 | IC50 (PBLUC_HILL_SLOPE 2.17, PBLUC_R_SQUARED 0.652, read-out: LUCIFERASE INFECTION ASSAY - IC50): 5.51 µM
6 | CN1N=C(SCc2ccc(Cl)cc2Cl)Sc2c1cnn(C)c2=O | > 8.52 | IC50 (PBLUC_HILL_SLOPE 2.78, PBLUC_R_SQUARED 0.171, read-out: LUCIFERASE INFECTION ASSAY - IC50): 5.14 µM
7 | Cc1ccc(Sc2ncccc2C(=O)Nc2nc3c(s2)CCCC3)cc1 | 3.95 | IC50 [1]: 3.38 µM
8 | O=C(Nc1cc(S(=O)(=O)N2CCCC2)ccc1O)c1sccc1-n1cccc1 | 3.25 | IC50 (FFLUC_HILL_SLOPE 4.58, FFLUC_R_SQUARED 0.706, PBLUC_HILL_SLOPE 1.57, PBLUC_R_SQUARED 0.879, read-out: LUCIFERASE INFECTION ASSAY - IC50): 0.802 µM
9 | CCC(C)c1ccc(-n2c(SCC(=O)N3c4ccccc4CC3C)nc3ccccc3c2=O)cc1 (configuration not stated) | 9.46 | IC50 (FFLUC_HILL_SLOPE 26.9, FFLUC_R_SQUARED 0.3, PBLUC_HILL_SLOPE 22.4, PBLUC_R_SQUARED 0.296, read-out: LUCIFERASE INFECTION ASSAY - IC50): 8.58 µM
10 | CC(=O)Nc1ccc(-c2cnc3ccc(-c4cccc(Oc5ccccc5)c4)nn23)cc1 | 3.35 | IC50 (HEPG2TOX_HILL_SLOPE 2.48, HEPG2TOX_R_SQUARED 0.914, PBLUC_HILL_SLOPE 2.88, PBLUC_R_SQUARED 0.663, read-out: LUCIFERASE INFECTION ASSAY - IC50): 1.56 µM
11 | O=C(c1ccc(-n2cccn2)cc1)N1CCC(n2c(=O)[nH]c3ccccc32)CC1 | > 10 | IC50 (HEPG2TOX_HILL_SLOPE 0.884, HEPG2TOX_R_SQUARED 0.19, PBLUC_HILL_SLOPE 11.8, PBLUC_R_SQUARED 0.218, read-out: LUCIFERASE INFECTION ASSAY - IC50): 9.85 µM
12 | Cc1ccc(NNC(=O)c2cnc3c(c2)c(C)nn3C)cc1Cl | > 10 | IC50 (PBLUC_HILL_SLOPE 2.54, PBLUC_R_SQUARED 0.422, read-out: LUCIFERASE INFECTION ASSAY - IC50): 7.03 µM
13 | COc1cccc(-c2ccc3ncc(-c4ccc(NC(C)=O)cc4)n3n2)c1 | 3.39 | IC50 (HEPG2TOX_HILL_SLOPE 0.992, HEPG2TOX_R_SQUARED 0.946, PBLUC_HILL_SLOPE 0.779, PBLUC_R_SQUARED 0.716, read-out: LUCIFERASE INFECTION ASSAY - IC50): 0.202 µM
14 | Cn1nc(C(C)(C)C)cc1C(=O)Nc1ccc2nc(-c3cccs3)nn2c1 | > 10 | IC50 [1]: > 10 µM
15 | CCC1CCc2sc(C(=O)Nc3ccccc3O)cc2C1 (configuration not stated) | > 10 | IC50 (PBLUC_HILL_SLOPE 24.2, PBLUC_R_SQUARED 0.273, read-out: LUCIFERASE INFECTION ASSAY - IC50): 9.71 µM
16 | CN(C)CCCOc1ccc(-c2nnc3ccc(-c4cccc(Cl)c4)cn23)cc1 | > 10 | IC50 (HEPG2TOX_HILL_SLOPE 9.26, HEPG2TOX_R_SQUARED 0.159, PBLUC_HILL_SLOPE 2.15, PBLUC_R_SQUARED 0.0523, read-out: LUCIFERASE INFECTION ASSAY - IC50): 7.9 µM
17 | O=C(Nc1cccc(C(F)(F)F)c1)n1ncc(Sc2ccc(Cl)cc2)c1-c1ccc(Cl)cc1 | 4.72 | IC50 (HEPG2TOX_HILL_SLOPE 15.8, HEPG2TOX_R_SQUARED 0.635, PBLUC_HILL_SLOPE 5.24, PBLUC_R_SQUARED 0.621, read-out: LUCIFERASE INFECTION ASSAY - IC50): 3.11 µM
18 | c1ccc(NCc2ccc(-c3cn4c(-c5cccnc5)cnc4cn3)cc2)cc1 | 7.31 | IC50 (PBLUC_HILL_SLOPE 2.17, PBLUC_R_SQUARED 0.86, read-out: LUCIFERASE INFECTION ASSAY - IC50): 2.66 µM
19 | C=CCNC(=S)N/N=C/C1=C(N2CCOCC2)C(=C/c2ccc(Cl)cc2Cl)/CC1 | > 10 | IC50 [1]: > 10 µM
20 | CCOC(=O)c1[nH]c(C)c(C(=O)CN(C)S(=O)(=O)c2c(C)noc2C)c1C | 3.73 | IC50 (PBLUC_HILL_SLOPE 16.9, PBLUC_R_SQUARED 0.509, read-out: LUCIFERASE INFECTION ASSAY - IC50): 3.28 µM
21 | O=C(CCSc1n[nH]c(=O)n1C1CC1)Nc1ccccc1 | > 10 | IC50 [1]: > 10 µM

Row | Compound | IC90 [µM] | further results
22 | COc1ccccc1-n1c(SCC(=O)c2c[nH]c3ccccc23)nnc1-c1cccs1 | 0.134 | IC50 (PBLUC_HILL_SLOPE 12.6, PBLUC_R_SQUARED 0.859, read-out: LUCIFERASE INFECTION ASSAY - IC50): 0.113 µM
23 | Cc1cc(O)nc(N/N=C/c2cc(C)n(CC(F)(F)F)c2C)n1 | > 10 | IC50 (HEPG2TOX_HILL_SLOPE 2.49, HEPG2TOX_R_SQUARED 0.474, PBLUC_HILL_SLOPE 1.68, PBLUC_R_SQUARED 0.728, read-out: LUCIFERASE INFECTION ASSAY - IC50): 3.36 µM
24 | CCCS(=O)(=O)/C(C#N)=N/Nc1cc(C(F)(F)F)cc(C(F)(F)F)c1 | 4.41 | IC50 (PBLUC_HILL_SLOPE 6.87, PBLUC_R_SQUARED 0.748, read-out: LUCIFERASE INFECTION ASSAY - IC50): 3.21 µM
25 | Cc1ccc(O)c(C(=O)NCC(C)c2ccccc2)c1 (configuration not stated) | 9.34 | IC50 (HEPG2TOX_HILL_SLOPE 0.817, HEPG2TOX_R_SQUARED 0.794, PBLUC_HILL_SLOPE 3.45, PBLUC_R_SQUARED 0.175, read-out: LUCIFERASE INFECTION ASSAY - IC50): 4.94 µM
26 | CC(C)NC(=S)N/N=C1\C(=O)Nc2ccc(C(C)C)cc21 | 4.02 | IC50 (FFLUC_HILL_SLOPE 3.36, FFLUC_R_SQUARED 0.392, HEPG2TOX_HILL_SLOPE 1.41, HEPG2TOX_R_SQUARED 0.93, PBLUC_HILL_SLOPE 4.04, PBLUC_R_SQUARED 0.837, read-out: LUCIFERASE INFECTION ASSAY - IC50): 2.33 µM
27 | COc1ccc(S(=O)(=O)N2CCSc3cc(Cl)ccc32)cc1 | 3.18 | IC50 (HEPG2TOX_HILL_SLOPE 2.85, HEPG2TOX_R_SQUARED 0.925, PBLUC_HILL_SLOPE 20.1, PBLUC_R_SQUARED 0.623, read-out: LUCIFERASE INFECTION ASSAY - IC50): 2.85 µM
28 | Cc1ccc2nc(NC(=O)COCc3ccccc3)c(C(=O)NC3CCCC3)n2c1 | > 8.12 | IC50 (PBLUC_HILL_SLOPE 14.3, PBLUC_R_SQUARED 0.563, read-out: LUCIFERASE INFECTION ASSAY - IC50): 7.54 µM
29 | Cc1sc2nc(CN3CCOCC3)nc(NCCOc3ccccc3)c2c1C | > 10 | IC50 [1]: > 10 µM
30 | CC1Cc2cc(S(N)(=O)=O)ccc2N1CCCOc1ccc(F)cc1 (configuration not stated) | > 10 | IC50 (HEPG2TOX_HILL_SLOPE 3.41, HEPG2TOX_R_SQUARED 0.506, PBLUC_HILL_SLOPE 2.13, PBLUC_R_SQUARED 0.616, read-out: LUCIFERASE INFECTION ASSAY - IC50): 6.18 µM
31 | Oc1cccc(-c2cnc3cnc(-c4ccco4)cn23)c1 | > 11.9 | IC50 (HEPG2TOX_HILL_SLOPE 0.436, HEPG2TOX_R_SQUARED 0.582, PBLUC_HILL_SLOPE 2.53, PBLUC_R_SQUARED 0.573, read-out: LUCIFERASE INFECTION ASSAY - IC50): 6.72 µM
32 | CCCn1c(NC(=O)C2CCCN(S(=O)(=O)c3cccs3)C2)nc2ccccc21 (configuration not stated) | > 10 | IC50 (FFLUC_HILL_SLOPE 15.6, FFLUC_R_SQUARED 0.229, read-out: LUCIFERASE INFECTION ASSAY - IC50): > 10 µM
33 | CC(Sc1cc(C(N)=O)c2ccccc2n1)C(=O)Nc1cccc(F)c1 (configuration not stated) | > 10 | IC50 [1]: > 10 µM
34 | Oc1c(Cl)cc(Cl)cc1C1Nc2cccc3cccc(c23)N1 | > 9.96 | IC50 [1]: > 9.96 µM
35 | CCN(CC)S(=O)(=O)N1CCN(C(=O)c2[nH]nc3ccccc23)CC1 | 3.63 | IC50 (PBLUC_HILL_SLOPE 2.28, PBLUC_R_SQUARED 0.575, read-out: LUCIFERASE INFECTION ASSAY - IC50): 1.39 µM
36 | OC1(c2ccc(F)cc2)CS/C(=N\c2cccnc2)N1Cc1ccco1 (configuration not stated) | > 10 | IC50 (PBLUC_HILL_SLOPE 6.5, PBLUC_R_SQUARED 0.331, read-out: LUCIFERASE INFECTION ASSAY - IC50): 8.78 µM
37 | O=C(CN1CCN(C(c2ccc(F)cc2)c2ccc(F)cc2)CC1)Nc1nnc(-c2ccccc2)o1 | 1.43 | IC50 [1]: 1.23 µM
38 | CC(=O)NCCNC(=O)c1ccc(OCC2CCCO2)cc1 (configuration not stated) | > 2 | IC50 [1]: > 2 µM
39 | Fc1ccc(CNc2n[nH]c(=S)s2)cc1 | > 13.7 | IC50 (FFLUC_HILL_SLOPE 2.08, FFLUC_R_SQUARED 0.432, read-out: LUCIFERASE INFECTION ASSAY - IC50): > 13.7 µM
40 | Cc1ccc(-n2c(SCc3c(-c4ccccc4)nc4sccn34)nnc2-c2ccccc2)cc1C | 3.83 | IC50 (FFLUC_HILL_SLOPE 2.28, FFLUC_R_SQUARED 0.669, PBLUC_HILL_SLOPE 14.9, PBLUC_R_SQUARED 0.408, read-out: LUCIFERASE INFECTION ASSAY - IC50): 3.31 µM
41 | Cc1ccc(NC(=O)COc2ccc(CCO)cc2-n2nc3ccccc3n2)cc1C | > 10 | IC50 [1]: > 10 µM
